Laboratory results: patent US9944602B2, “Piperidinone herbicides” (E. I. DU PONT DE NEMOURS AND COMPANY, priority 2014, dated 2018)

Assays:
Format in all cases: in vivo
[1] = system: barnyardgrass (Echinochloa crus-galli); test: Test A preemergence barnyardgrass; conditions: 0 to 100 scale, 0 no effect, 100 complete control
How it was run: (§1)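 Both application timings used the same loam-and-sand medium and the same solvent–surfactant formulation. Postemergence plants were 2–10 cm at the one- to two-leaf stage. After roughly 10 d of greenhouse growth, injury was judged visually against untreated plants, where 0 is no effect and 100 complete control.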

[2] = system: kochia (Kochia scoparia); test: Test A preemergence kochia; conditions: 0 to 100 scale, 0 no effect, 100 complete control
How it was run: as §1

[3] = system: ragweed (common ragweed, Ambrosia elatior); test: Test A preemergence ragweed; conditions: 0 to 100 scale, 0 no effect, 100 complete control
How it was run: as §1

[4] = system: ryegrass, Italian (Italian ryegrass, Lolium multiflorum); test: Test A preemergence ryegrass, Italian; conditions: 0 to 100 scale, 0 no effect, 100 complete control
How it was run: as §1

[5] = system: foxtail, giant (giant foxtail, Setaria faberii); test: Test A preemergence foxtail, giant; conditions: 0 to 100 scale, 0 no effect, 100 complete control
How it was run: as §1

[6] = system: pigweed (Amaranthus retroflexus); test: Test A preemergence pigweed; conditions: 0 to 100 scale, 0 no effect, 100 complete control
How it was run: as §1

[7] = system: barnyardgrass (Echinochloa crus-galli); test: Test A postemergence barnyardgrass; conditions: 0 to 100 scale, 0 is no effect, 100 is complete control
How it was run: as §1

[8] = system: kochia (Kochia scoparia); test: Test A postemergence kochia; conditions: 0 to 100 scale, 0 is no effect, 100 is complete control
How it was run: as §1

[9] = system: ragweed (common ragweed, Ambrosia elatior); test: Test A postemergence ragweed; conditions: 0 to 100 scale, 0 is no effect, 100 is complete control
How it was run: as §1

[10] = system: ryegrass, Italian (Italian ryegrass, Lolium multiflorum); test: Test A postemergence ryegrass, Italian; conditions: 0 to 100 scale, 0 is no effect, 100 is complete control
How it was run: as §1

[11] = system: foxtail, giant (giant foxtail, Setaria faberii); test: Test A postemergence foxtail, giant; conditions: 0 to 100 scale, 0 is no effect, 100 is complete control
How it was run: as §1

[12] = system: pigweed (Amaranthus retroflexus); test: Test A postemergence pigweed; conditions: 0 to 100 scale, 0 is no effect, 100 is complete control
How it was run: as §1

[13] = system: wheat (Triticum aestivum); test: Test A postemergence wheat; conditions: 0 to 100 scale, 0 is no effect, 100 is complete control
How it was run: as §1

[14] = system: corn (Zea mays); test: Test A postemergence corn; conditions: 0 to 100 scale, 0 is no effect, 100 is complete control
How it was run: as §1

[15] = system: blackgrass (Alopecurus myosuroides); test: Test A postemergence blackgrass; conditions: 0 to 100 scale, 0 is no effect, 100 is complete control
How it was run: as §1

[16] = system: galium (catchweed bedstraw, Galium aparine); test: Test A postemergence galium; conditions: 0 to 100 scale, 0 is no effect, 100 is complete control
How it was run: as §1

[17] = system: rice (Oryza sativa); test: Test B flooded paddy test rice; conditions: Table B, Flood, 250 g ai/ha, scale 0 to 100
How it was run: (§2)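 Plants at 2-leaf stage in pots flooded 3 cm above soil; compounds applied directly into paddy water, depth kept throughout.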

[18] = system: sedge, umbrella (small-flower umbrella sedge, Cyperus difformis); test: Test B flooded paddy test sedge, umbrella; conditions: Table B, Flood, 250 g ai/ha, scale 0 to 100
How it was run: as §2

[19] = system: ducksalad (Heteranthera limosa); test: Test B flooded paddy test ducksalad; conditions: Table B, Flood, 250 g ai/ha, scale 0 to 100
How it was run: as §2

[20] = system: barnyardgrass (Echinochloa crus-galli); test: Test B flooded paddy test barnyardgrass; conditions: Table B, Flood, 250 g ai/ha, scale 0 to 100
How it was run: as §2

Compound	Barnyardgrass plant response rating ([1]; 125 g ai/ha)	Barnyardgrass plant response rating ([1]; 500 g ai/ha)	Kochia plant response rating ([2]; 125 g ai/ha)	Kochia plant response rating ([2]; 500 g ai/ha)	Ragweed plant response rating ([3]; 125 g ai/ha)	Ragweed plant response rating ([3]; 500 g ai/ha)	Ryegrass, Italian plant response rating ([4]; 125 g ai/ha)	Ryegrass, Italian plant response rating ([4]; 500 g ai/ha)	Foxtail, Giant plant response rating ([5]; 125 g ai/ha)	Foxtail, Giant plant response rating ([5]; 500 g ai/ha)	Pigweed plant response rating ([6]; 125 g ai/ha)	Pigweed plant response rating ([6]; 500 g ai/ha)	Plant response rating, Barnyardgrass ([7]; 125 g ai/ha)	Plant response rating, Barnyardgrass ([7]; 500 g ai/ha)	Plant response rating, Kochia ([8]; 125 g ai/ha)	Plant response rating, Kochia ([8]; 500 g ai/ha)	Plant response rating, Ragweed ([9]; 125 g ai/ha)	Plant response rating, Ragweed ([9]; 500 g ai/ha)	Plant response rating, Ryegrass, Italian ([10]; 125 g ai/ha)	Plant response rating, Ryegrass, Italian ([10]; 500 g ai/ha)	other results
O=C1NCCC(c2cccc(C(F)F)c2)C1C(=O)Nc1ccc(F)c(F)c1F (stereo not drawn) [Compound 47]	70	90	0	0	0	0	0	40	80	90	0	0	50	90	0	0	0	0	0	20	Plant response rating, Foxtail, Giant ([11]; 125 g ai/ha): 70; Plant response rating, Foxtail, Giant ([11]; 500 g ai/ha): 80; Plant response rating, Pigweed ([12]; 125 g ai/ha): 0; Plant response rating, Pigweed ([12]; 500 g ai/ha): 0; Plant response rating, Wheat ([13]; 125 g ai/ha): 0; Plant response rating, Wheat ([13]; 500 g ai/ha): 30; Plant response rating, Corn ([14]; 125 g ai/ha): 0; Plant response rating, Corn ([14]; 500 g ai/ha): 0; Plant response rating, Blackgrass ([15]; 125 g ai/ha): 0; Plant response rating, Blackgrass ([15]; 500 g ai/ha): 0; Plant response rating, Galium ([16]; 125 g ai/ha): 0; Plant response rating, Galium ([16]; 500 g ai/ha): 0; Plant response rating [17]: 0; Plant response rating [18]: 0; Plant response rating [19]: 50; Plant response rating [20]: 0
O=C1NCCC(c2cccc(C(F)F)c2)C1C(=O)Nc1ccccc1F (stereo not drawn) [Compound 48]	40	90	0	0	0	0	0	0	70	90	0	0	30	80	0	0	0	0	0	0	Plant response rating, Foxtail, Giant ([11]; 125 g ai/ha): 0; Plant response rating, Foxtail, Giant ([11]; 500 g ai/ha): 30; Plant response rating, Pigweed ([12]; 125 g ai/ha): 0; Plant response rating, Pigweed ([12]; 500 g ai/ha): 0; Plant response rating, Wheat ([13]; 125 g ai/ha): 0; Plant response rating, Wheat ([13]; 500 g ai/ha): 0; Plant response rating, Corn ([14]; 125 g ai/ha): 0; Plant response rating, Corn ([14]; 500 g ai/ha): 0; Plant response rating, Blackgrass ([15]; 125 g ai/ha): 0; Plant response rating, Blackgrass ([15]; 500 g ai/ha): 0; Plant response rating, Galium ([16]; 125 g ai/ha): 0; Plant response rating, Galium ([16]; 500 g ai/ha): 0; Plant response rating [17]: 15; Plant response rating [18]: 0; Plant response rating [19]: 60; Plant response rating [20]: 20
